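Following 48 hours of exposure in 96-well plates, responses at five concentrations were used to interpolate endpoints linearly. GI50: concentration for 50% inhibition of growth.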 The source made the active and inactive calls. Cut-off read from the data, not from the text of the source: active = GI50 up to about 1.1 µM and inactive = higher.
Assays:
Experiment in all cases: NCI tumour cell line growth inhibition, 48 h
SK-OV-3 = test system: SK-OV-3
SF-268 = test system: SF-268
M19-MEL = test system: M19-MEL
SN12C = test system: SN12C
Malme-3M = test system: Malme-3M
SK-MEL-5 = test system: SK-MEL-5
K562 = test system: K562
NCI-H460 = test system: NCI-H460
DMS-273 = test system: DMS-273
HCC 2998 = test system: HCC 2998
TK-10 = test system: TK-10
LOX IMVI = test system: LOX IMVI
HL-60 = test system: HL-60
HOP-92 = test system: HOP-92
COLO 205 = test system: COLO 205
UO-31 = test system: UO-31
HOP-62 = test system: HOP-62
OVCAR-5 = test system: OVCAR-5
IGROV-1 = test system: IGROV-1
HT-29 = test system: HT-29
SK-MEL-2 = test system: SK-MEL-2
HOP-18 = test system: HOP-18
RPMI-8226 = test system: RPMI-8226
XF498 = test system: XF498
SF-295 = test system: SF-295
KM-20L2 = test system: KM-20L2
OVCAR-8 = test system: OVCAR-8
U-251 = test system: U-251
SNB-75 = test system: SNB-75
SNB-78 = test system: SNB-78
M14 = test system: M14
A498 = test system: A498
ACHN = test system: ACHN
NCI-H23 = test system: NCI-H23
786-0 = test system: 786-0
HCT-15 = test system: HCT-15
RXF 393 = test system: RXF 393
A549 = test system: A549
MOLT-4 = test system: MOLT-4
HCT-116 = test system: HCT-116
UACC-257 = test system: UACC-257
CCRF-CEM = test system: CCRF-CEM
DLD-1 = test system: DLD-1
KM12 = test system: KM12
OVCAR-4 = test system: OVCAR-4
SNB-19 = test system: SNB-19
NCI-H226 = test system: NCI-H226
OVCAR-3 = test system: OVCAR-3
SF-539 = test system: SF-539
EKVX = test system: EKVX
DMS-114 = test system: DMS-114
SK-MEL-28 = test system: SK-MEL-28
UACC-62 = test system: UACC-62
CAKI-1 = test system: CAKI-1
SR = test system: SR
LXFL 529 = test system: LXFL 529
SW-620 = test system: SW-620

`Cc1cc2c(cc1Br)C1(C)CCC(C)C1(C)O2` (configuration not stated) was tested, and the GI50 (SK-OV-3) was 53.3 µM (inactive), the GI50 (SF-268) was 34 µM (inactive) and the GI50 (M19-MEL) was 25.3 µM (inactive). For the same compound, the GI50 (SN12C) was 24.9 µM (inactive), the GI50 (Malme-3M) was 16.9 µM (inactive) and the GI50 (SK-MEL-5) was 29.1 µM (inactive). For the same compound, the GI50 (K562) was 17.3 µM (inactive), the GI50 (NCI-H460) was 23.7 µM (inactive) and the GI50 (DMS-273) was 19.6 µM (inactive). For the same compound, the GI50 (HCC 2998) was 43 µM (inactive), the GI50 (TK-10) was > 100 µM (inactive) and the GI50 (LOX IMVI) was 18.6 µM (inactive). For the same compound, the GI50 (HL-60) was 13.4 µM (inactive), the GI50 (HOP-92) was 20.9 µM (inactive) and the GI50 (COLO 205) was 16.3 µM (inactive). The GI50 (UO-31) was 32.4 µM (inactive), the GI50 (HOP-62) was 30.3 µM (inactive) and the GI50 (OVCAR-5) was 23.8 µM (inactive). For the same compound, the GI50 (IGROV-1) was 47.6 µM (inactive), the GI50 (HT-29) was 30.6 µM (inactive) and the GI50 (SK-MEL-2) was 18.6 µM (inactive). The GI50 (HOP-18) was 30.1 µM (inactive), the GI50 (RPMI-8226) was 14 µM (inactive) and the GI50 (XF498) was 22.5 µM (inactive). The GI50 (SF-295) was 17.3 µM (inactive), the GI50 (KM-20L2) was 32.3 µM (inactive) and the GI50 (OVCAR-8) was 29.6 µM (inactive). The GI50 (U-251) was 21.8 µM (inactive), the GI50 (SNB-75) was 36.6 µM (inactive) and the GI50 (SNB-78) was 24 µM (inactive). For the same compound, the GI50 (M14) was 32.3 µM (inactive), the GI50 (A498) was 34.6 µM (inactive) and the GI50 (ACHN) was 31.2 µM (inactive). The GI50 (NCI-H23) was 25.5 µM (inactive), the GI50 (786-0) was 23.1 µM (inactive) and the GI50 (HCT-15) was 36.6 µM. The GI50 (RXF 393) was 15.7 µM (inactive), the GI50 (A549) was 36.5 µM (inactive) and the GI50 (MOLT-4) was 17.9 µM (inactive). For the same compound, the GI50 (HCT-116) was 14 µM (inactive), the GI50 (UACC-257) was 30.5 µM (inactive) and the GI50 (CCRF-CEM) was 22.1 µM (inactive). For the same compound, the GI50 (DLD-1) was 48.8 µM (inactive), the GI50 (KM12) was 31.6 µM (inactive) and the GI50 (OVCAR-4) was 39.8 µM (inactive). The GI50 (SNB-19) was 36 µM (inactive), the GI50 (NCI-H226) was 19.8 µM (inactive) and the GI50 (OVCAR-3) was 21.7 µM (inactive). For the same compound, the GI50 (SF-539) was > 100 µM (inactive), the GI50 (EKVX) was 55.6 µM (inactive) and the GI50 (DMS-114) was 22 µM (inactive). For the same compound, the GI50 (SK-MEL-28) was 38.4 µM (inactive), the GI50 (UACC-62) was 44 µM (inactive) and the GI50 (CAKI-1) was 56 µM (inactive). The GI50 (SR) was 13 µM (inactive), the GI50 (LXFL 529) was 57.7 µM (inactive) and the GI50 (SW-620) was 40.1 µM (inactive).

Reference: ChEMBL document CHEMBL1201862, “PubChem BioAssay data set” (2004)
